# From patent publication US12708673B2, “Methods and compositions related to peptides and proteins with c-terminal elements” (Sanford Burnham Prebys Medical Discovery Institute, priority 2008, dated 2026)
# Experiments:
# Du-145 = assay: RPARPAR phage binding to cultured cells at 4° C.; format: cell-based, human; conditions: Du-145 prostate cancer cells
# Procedure: FIG. 15A: Binding of RPARPAR (SEQ ID NO:2) phage to the cultured cells at 4° C. in vitro. FIG. 15B: Binding of RPARPAR (SEQ ID NO:2) phage to primary cell suspensions of mouse organs at 4° C. ex vivo. FIGS. 15C and 15D: Tissue distribution of intravenously injected RPARPAR (SEQ ID NO:2) phage after 20 minutes of circulation time. FIG. 15C: Phage was quantified by titration, tissue binding is expressed as fold G7 phage. Statistical analysis was performed by Student's t-test (c). n=3; error bars indicate s.d.; double asterisk, p<0.01, triple asterisk, p<0.001. FIG. 15D (panels d and e): Immunofluorescence localization of T7 phage (light coloring) in lung sections of mice injected intravenously with RPARPAR (SEQ ID NO:2) (d) or G7 (e) phage. Widespread immunoreactivity is present in the lungs of mice injected with RPARPAR (SEQ ID NO:2) (arrowheads in d) but not G7 (with occasional labeling seen in vessels, arrows in e). Scale bar: 50 μm.
# Phage display. For in vivo phage display, mice were injected intravenously with 10^10 plaque-forming units (pfu) of T7 phage followed by perfusion of the circulatory system and determination of the bound phage in target organs by titration. For cell binding studies on cultured cells (in vitro display) and organ-derived cell suspensions (ex vivo display), the cells were incubated with 10^9 pfu of phage at 4° C., washed, lysed, and quantified by titration. […]
# PPC-1 cells = assay: Confocal immunofluorescence co-staining of phage/qdots with cellular markers in PPC-1 cells; format: cell-based, human
# [1] = target: T1, triple mutant NS346A-E348A-T349A NRP-1 (Homo sapiens, UniProt O14786, E348A/S346A/T349A); assay: Phage binding to M21 melanoma cells transfected with NRP-1 binding pocket mutant; format: cell-based
# T1 construct: expressed in transfected cells; host or cells: M21 melanoma cells, transient transfection with lipofectamine; site-directed mutant of the wild-type NRP-1 cDNA in pcDNA3.1(+)
# Procedure: (§1) FIGS. 18A-18C show the identification and validation of NRP-1 as the CendR receptor. FIG. 18A: Affinity chromatography of proteins interacting with RPARPAR (SEQ ID NO: 2) peptide. PPC-1 tumor tissue was extracted with a 200 mM glucopyranoside buffer, and the extract was incubated with RPARPAR-coated (SEQ ID NO:2) beads, followed by extensive washes, and elution with 2 mM free RPARPAR (SEQ ID NO:2) peptide. Note appearance of a 130 kDa band, identified by mass spectroscopy as NRP-1, starting in the fraction 3 of the eluate. Upper panel—a silver stained gel, lower panel—an immunoblot with anti-NRP-1 antibody. FIG. 18B: Binding of RPARPAR (SEQ ID NO:2) phage to M21 melanoma cells transiently transfected with wild-type NRP-1 (NRP-1), triple mutant NS346A-E348A-T349A NRP-1 (Mutant NRP-1), or parental pcDNA3.1plasmid (Vector), and to non-transfected M21 cells. FIG. 18C: (c, d), Confocal immunofluorescence images of NRP-1 and RPARPAR (SEQ ID NO:2) T7 phage in PPC-1 cells incubated with phage at 37° C. for 40 minutes (c) and 3 hours (d). The phage and NRP-1 co-localize extensively, but there appears to be a progressive decrease in the overlap (arrowheads in c and d) and appearance of structures positive for the phage only (arrows, d). (e) Immunostaining and confocal imaging of RPARPAR (SEQ ID NO:2) phage and NRP-1 in M21 cells transiently transfected with NRP-1. […]
# wild-type NRP-1 = target: T2, wild-type NRP-1 (Homo sapiens, UniProt O14786); assay: Phage binding and internalization in M21 melanoma cells transiently transfected with wild-type NRP-1; format: cell-based
# T2 construct: expressed in transfected cells; host or cells: M21 melanoma cells, transient transfection with lipofectamine; pcDNA3.1(+) construct, gift of Dr. Michael Klagsbrun
# Procedure: as §1
# T2 sequence (O14786 22-923): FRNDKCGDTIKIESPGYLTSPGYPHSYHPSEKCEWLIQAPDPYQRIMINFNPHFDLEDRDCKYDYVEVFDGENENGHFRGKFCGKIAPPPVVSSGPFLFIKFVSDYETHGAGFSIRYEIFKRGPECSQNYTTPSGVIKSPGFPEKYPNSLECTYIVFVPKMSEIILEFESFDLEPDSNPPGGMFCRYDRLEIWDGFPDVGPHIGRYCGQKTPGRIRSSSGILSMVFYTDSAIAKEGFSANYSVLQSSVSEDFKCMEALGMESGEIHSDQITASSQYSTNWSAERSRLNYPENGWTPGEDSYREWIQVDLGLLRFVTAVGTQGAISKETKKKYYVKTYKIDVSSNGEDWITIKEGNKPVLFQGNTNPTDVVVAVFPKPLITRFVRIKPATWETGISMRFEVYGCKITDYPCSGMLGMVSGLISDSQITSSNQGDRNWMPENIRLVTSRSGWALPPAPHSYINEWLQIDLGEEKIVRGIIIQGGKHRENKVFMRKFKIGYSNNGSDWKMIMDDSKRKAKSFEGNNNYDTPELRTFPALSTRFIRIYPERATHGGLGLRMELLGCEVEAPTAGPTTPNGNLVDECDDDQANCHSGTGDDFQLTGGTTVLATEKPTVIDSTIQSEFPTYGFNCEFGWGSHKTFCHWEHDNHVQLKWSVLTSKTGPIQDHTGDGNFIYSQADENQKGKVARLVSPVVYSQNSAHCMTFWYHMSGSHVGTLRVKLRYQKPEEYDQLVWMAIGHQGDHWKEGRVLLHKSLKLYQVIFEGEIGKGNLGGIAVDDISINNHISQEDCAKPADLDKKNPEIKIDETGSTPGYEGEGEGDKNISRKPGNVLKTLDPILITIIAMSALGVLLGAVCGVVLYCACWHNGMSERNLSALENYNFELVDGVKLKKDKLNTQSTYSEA
# T1 sequence (O14786 22-923 S346A/E348A/T349A): as the sequence (O14786 22-923) above, with S325A, E327A, T328A counted along it
substance,measurement,setting,value
RPARPAR [RPARPAR phage],Phage binding,Du-145,bound
same,Overlap of phage immunoreactivity with labeled cholera toxin subunit B,PPC-1 cells; 180 minutes,significant overlap
same,Overlap of internalized phage staining with subcellular compartment markers,"PPC-1 cells; LAMP-1, caveolin-1, calnexin, EEA-1, 60 minutes",did not show any clear overlap
same,Phage binding to M21 cells transfected with NRP-1 binding pocket mutant,[1],did not confer
same,Phage binding and internalization by M21 cells with forced expression of NRP-1,wild-type NRP-1,capable of binding and internalizing
